Where “and” joins values, the source holds several entries; their conditions need not be identical. Equal values may be shown once. Read-outs that look alike come from different tables or passages of the source. Blank lines part the entries; values can stand above or below the compound they belong to.
Assays:
[1] = assay type: in vitro ADME, human; settings: for Mean Height / % Remaining: human, 1 μM; for % Remaining: plasma
Method: Compound B1 was spiked directly into an individual lot of fresh human plasma, with sodium heparin as the anticoagulant, such that the final assay concentration of the compound was 1.00 μM. After incubation at room temperature for 0, 0.5, 1, 2, and 4 hours, samples were removed and aliquoted for analysis. Valacyclovir was used as a positive control. The plasma samples containing a test compound were processed by protein precipitation.
A primary 0.500 mM stock solution of compound B1 was prepared in either acetonitrile or acetonitrile:water (1:1, v/v). A 0.200 mM working stock was made from the primary stock in acetonitrile:water (1:1, v/v), which was used in the human plasma stability study. The primary and working stock solutions were stored at −20° C. when not in use. When it was used in the assay, the working stock was kept at room temperature for as short a time as possible.
The human plasma stability study was initiated by adding 5.00 μL of compound B1 stock solution to 0.995 mL of human plasma (sodium heparin) in a 1.7-mL snap tube. Time zero points were generated by immediately removing duplicate 50.0 μL aliquots of plasma after initiating each incubation and quenching in 150 μL of methanol. The plasma incubation tubes were capped and remained at room temperature between time points.
After 0.5, 1, 2, and 4 hours of incubation, duplicate 50.0 μL aliquots of plasma were removed and placed into the extraction tubes containing 150 μL of methanol. Each time point was immediately extracted by vortex mixing, centrifuged and the supernate removed to HPLC vial for analysis. After extraction of all samples, the extracts were analyzed by LC/MS/MS.
LC/MS/MS analysis of the incubation solutions was conducted by initial separation of the test compound peak using chromatography prior to detection by the mass spectrometer. The LC/MS system was comprised of a HPLC coupled with a TQS-Micro or Quattro Premier. The mobile phase was nebulized using heated nitrogen in a Z-spray source/interface set to electrospray in either positive ionization mode or negative ionization mode. The ionized compounds were detected using MS/MS. The data was acquired using MassLynx.

[2] = Compound concentration in the CSF of rats; assay type: in vivo
Method: Compound B1 in the CSF of the rats was also analyzed. The results are shown in Table 4 below wherein BQL stands for below the quantifiable limit of 2.0 ng/mL.

[3] = Pharmacokinetic study in rats; assay type: in vivo
Method: A pharmacokinetic study on compound B1 was carried out in rats.

Mean Height ([1]; 0 h): 21,400
Mean Height ([1]; 0.5 h): 20,700
Mean Height ([1]; 1 h): 20,500
Mean Height ([1]; 2 h): 19,800
Mean Height ([1]; 4 h): 17,700
% Remaining ([1]; 0 h): 100%
% Remaining ([1]; 0.5 h): 96.7%
% Remaining ([1]; 1 h): 95.8%
% Remaining ([1]; 2 h): 92.5%
% Remaining ([1]; 4 h): 82.7%
SMILES: CC(C)[C@H](N)C(=O)OCCOCn1cnc2c(=O)[nH]c(N)nc21 [Valacyclovir, reference compound]

CSF Concentration ([2]; IV, 0.5 h, individual animals): 26 ng/mL and 17 ng/mL and 36 ng/mL
CSF Concentration ([2]; IV, 1.0 h, individual animals): 51 ng/mL and 391 ng/mL and 17 ng/mL
CSF Concentration ([2]; IV, 2.0 h, individual animals): 33 ng/mL and 27 ng/mL
CSF Concentration ([2]; IV, 4.0 h, individual animals): 10 ng/mL and 21 ng/mL and 4.5 ng/mL
CSF Concentration ([2]; IV, 8.0 h, individual animals): 1.8 ng/mL
concentration at 0.5 h ([2]; rat, CSF, iv, 0.5 h, mean): 27 ng/mL
concentration at 1 h ([2]; rat, CSF, iv, 1.0 h, mean): 153 ng/mL
concentration at 2 h ([2]; rat, CSF, iv, 2.0 h, individual animals, read-out: CSF Concentration): 17 ng/mL
concentration at 2 h ([2]; rat, CSF, iv, 2.0 h, mean, read-out: CSF Concentration, Mean): 26 ng/mL
concentration at 4 h ([2]; rat, CSF, iv, 4.0 h, mean): 12 ng/mL
concentration at 8 h ([2]; rat, CSF, iv, 8.0 h, individual animals, read-out: CSF Concentration): 1.2 ng/mL
concentration at 8 h ([2]; rat, CSF, iv, 8.0 h, mean, read-out: CSF Concentration, Mean): 1.5 ng/mL
concentration at 2 h ([2]; rat, CSF, po, 10 mg/kg, PO, 2.0 h, individual animals, read-out: CSF Concentration): 4.6 ng/mL
concentration at 2 h ([2]; rat, CSF, po, 10 mg/kg, PO, 2.0 h, mean (N=1), read-out: CSF Concentration, Mean): 4.6 ng/mL
Metabolism in fresh human plasma [1]: not significantly metabolized
Mean Height ([1]; 0 h): 9,610
Mean Height ([1]; 0.5 h): 9,430
Mean Height ([1]; 1 h): 9,330
Mean Height ([1]; 2 h): 9,610
Mean Height ([1]; 4 h): 9,000
% Remaining ([1]; 0 h): 100%
% Remaining ([1]; 0.5 h): 98.1%
% Remaining ([1]; 1 h): 97.1%
% Remaining ([1]; 2 h): 100%
% Remaining ([1]; 4 h): 93.7%
AUCINF/Dose ([3]; IV): 2950
CL or CL/F ([3]; IV): 4.8 mL/min/kg
HL ([3]; IV): 1.9 h
AUCINF/Dose ([3]; PO): 43
HL ([3]; PO): 14 h
AUC(0-inf) ([3]; rat, in vivo, 1 mg/kg, IV): 2950 ng·h/mL
AUC(0-t) ([3]; rat, in vivo, 1 mg/kg, IV): 2950 ng·h/mL
Cmax ([3]; rat, in vivo, 1 mg/kg, IV): 3980 ng/mL
AUC(0-inf) ([3]; rat, in vivo, 10 mg/kg, PO): 431 ng·h/mL
AUC(0-t) ([3]; rat, in vivo, 10 mg/kg, PO): 267 ng·h/mL
Cmax ([3]; rat, in vivo, 10 mg/kg, PO): 29 ng/mL
Tmax ([3]; rat, in vivo, 10 mg/kg, PO): 2 h
bioavailability ([3]; rat, in vivo, 10 mg/kg, PO): 1.25%
CL/F ([3]; rat, in vivo, 10 mg/kg, PO, read-out: CL or CL/F): 387 mL/min/kg
SMILES: O=C(O)c1ccc(NC(=O)[C@@H]2CCC[C@H](C(=O)Nc3ccc(C(=O)O)cc3)C2)cc1 [B1, 4,4′-(((1R,3S)-cyclohexane-1,3-dicarbonyl)bis(azanediyl))dibenzoic acid]
CSF Concentration ([2]; IV, 0.00 h, individual animals): BQL (below the quantifiable limit of 2.0 ng/mL)
CSF Concentration ([2]; IV, 12 h, individual animals): BQL (below the quantifiable limit of 2.0 ng/mL)
CSF Concentration ([2]; PO, 0.00 h, individual animals): BQL (below the quantifiable limit of 2.0 ng/mL)
CSF Concentration ([2]; PO, 0.5 h, individual animals): BQL (below the quantifiable limit of 2.0 ng/mL)
CSF Concentration ([2]; PO, 1.0 h, individual animals): BQL (below the quantifiable limit of 2.0 ng/mL)
CSF Concentration ([2]; PO, 2.0 h, individual animals): BQL (below the quantifiable limit of 2.0 ng/mL)
CSF Concentration ([2]; PO, 4.0 h, individual animals): BQL (below the quantifiable limit of 2.0 ng/mL)
CSF Concentration ([2]; PO, 8.0 h, individual animals): BQL (below the quantifiable limit of 2.0 ng/mL)
CSF Concentration ([2]; PO, 12 h, individual animals): BQL (below the quantifiable limit of 2.0 ng/mL)
